Reference: patent publication US11008295B2, “Compounds having antiinfective, antitumoral and antifungal activity” (priority 2017, dated 2021)

How the values were obtained:
Assay in all cases: Kirby-Bauer disk diffusion susceptibility test
E. faecalis = type: cell-based
Protocol: (§1) Bacterial strains, from clinical origin, were supplied by the National Center for Microbiology, Institute of Health Carlos III (Majadahonda, Madrid). They are detailed in Table I.
(§2) Bacterial cells suspension in sterile saline was prepared from a culture of 24-72 h, depending on bacterial species, in Mueller-Hinton Agar with 5% sheep blood. Each suspension was adjusted to a fixed size inoculum of 1-5×10^8 CFU/ml with a spectrophotometer (Ferraro, M J National Committee for Clinical Laboratory Standards. 2000).
(§3) Kirby-Bauer disk diffusion susceptibility test protocol was utilized to determine the sensitivity or resistance of pathogenic bacteria against the compounds and others antibiotics. The absence of growth around the disks is an indirect measure of the ability of this compound to inhibit an organism (Kirby, W. et al., Antibiotics Annu. 1956-1957:892). After 18 to 72 hours of incubation at […], with or without CO2, under aerobic or anaerobic conditions, depending on the bacterial species, halo of growth inhibition were obtained and evaluated.
(§4) Interpretation of susceptibility and resistance was based on the presence or absence of a zone of inhibition surrounding the disk. Kirby-Bauer disk diffusion susceptibility test is a common method which uses antibiotic-impregnated wafers to test whether bacteria are affected by antibiotics. The size of the zone of inhibition depends on how effective the antibiotic is at stopping the growth of the bacterium. A stronger antibiotic will create a larger zone, because a lower concentration of the antibiotic is enough to stop growth.

E. coli = type: cell-based
Protocol: as §1, §2, §3, §4

P. aeruginosa = type: cell-based
Protocol: as §1, §2, §3, §4

A. baumannii = type: cell-based
Protocol: as §1, §2, §3, §4

S. epidermidis = type: cell-based
Protocol: as §1, §2, §3, §4

E. faecium = type: cell-based
Protocol: as §1, §2, §3, §4

S. aureus = type: cell-based
Protocol: as §1, §2, §3, §4

N. cyriacigeorgica = type: cell-based
Protocol: as §1, §2, §3, §4

N. carnea = type: cell-based, Nocardia carnea
Protocol: as §1, §2, §3, §4

T. pulmonis = type: cell-based, Tsukamurella pulmonis
Protocol: as §1, §2, §3, §4

B. cereus = type: cell-based, Bacillus cereus
Protocol: as §1, §2, §3, §4

M. chelonae = type: cell-based; settings: M. chelonae strain 870, isolation year 2011
Protocol: as §1, §2, §3, §4

M. fortuitum = type: cell-based; settings: M. fortuitum strain 1080, isolation year 2011
Protocol: as §1, §2, §3, §4

M. abscessus = type: cell-based, Mycobacterium abscessus; settings: M. abscessus strain 690, isolation year 2012
Protocol: as §1, §2, §3, §4

[1] = E. faecalis strain 52, isolation year 2006
[2] = E. faecalis strain 1052, isolation year 2008
[3] = E. coli strain 29, isolation year 2012
[4] = E. coli strain 305, isolation year 2008
[5] = P. aeruginosa strain 96, isolation year 2014
[6] = P. aeruginosa strain 115, isolation year 2013
[7] = A. baumannii strain 300, isolation year 2001
[8] = A. baumannii strain 1301, isolation year 2009
[9] = S. epidermidis strain 188, isolation year 2009
[10] = S. epidermidis strain 982, isolation year 2006
[11] = E. faecium strain 26, isolation year 2012
[12] = E. faecium strain 209, isolation year 2015
[13] = S. aureus strain 282, isolation year 2005
[14] = S. aureus strain 890, isolation year 2010
[15] = N cyriacigeorgica strain 199, isolation year 2005
[16] = N. cyriacigeorgica strain 30, isolation year 2005
[17] = N. carnea strain 40, isolation year 2011
[18] = N. carnea strain 769, isolation year 2009
[19] = T. pulmonis strain 40, isolation year 2015
[20] = T. pulmonis strain 1991, isolation year 2009
[21] = B. cereus strain 25, isolation year 2014
[22] = B. cereus strain 182, isolation year 2013
Note: key: I = intermediate activity; S = susceptibility; R = Resistance.

Compound | Sensitivity or resistance of the strain to the antibiotic (E. faecalis; [1]) | Sensitivity or resistance of the strain to the antibiotic (E. faecalis; [2]) | Sensitivity or resistance of the strain to the antibiotic (E. coli; [3]) | Sensitivity or resistance of the strain to the antibiotic (E. coli; [4]) | Sensitivity or resistance of the strain to the antibiotic (P. aeruginosa; [5]) | Sensitivity or resistance of the strain to the antibiotic (A. baumannii; [7]) | Sensitivity or resistance of the strain to the antibiotic (A. baumannii; [8]) | Sensitivity or resistance of the strain to the antibiotic (S. epidermidis; [9]) | Sensitivity or resistance of the strain to the antibiotic (S. epidermidis; [10]) | Sensitivity or resistance of the strain to the antibiotic (E. faecium; [11]) | Sensitivity or resistance of the strain to the antibiotic (E. faecium; [12]) | Sensitivity or resistance of the strain to the antibiotic (S. aureus; [13]) | Sensitivity or resistance of the strain to the antibiotic (S. aureus; [14]) | Sensitivity or resistance of the strain to the antibiotic (N. cyriacigeorgica; [15]) | Sensitivity or resistance of the strain to the antibiotic (N. cyriacigeorgica; [16]) | Sensitivity or resistance of the strain to the antibiotic (N. carnea; [17]) | Sensitivity or resistance of the strain to the antibiotic (N. carnea; [18]) | Sensitivity or resistance of the strain to the antibiotic (T. pulmonis; [19]) | Sensitivity or resistance of the strain to the antibiotic (T. pulmonis; [20]) | Sensitivity or resistance of the strain to the antibiotic (B. cereus; [21]) | further results
NCC[C@H](O)C(=O)N[C@@H]1C[C@H](N)[C@@H](O[C@H]2O[C@H](CN)[C@@H](O)[C@H](O)[C@H]2O)[C@H](O)[C@H]1O[C@H]1O[C@H](CO)[C@@H](O)[C@H](N)[C@H]1O [AMK, Amikacin] | S | S | S | S | S | R | S | S | S | S | R | S | S | R | S | R | S | R | S | – | Sensitivity or resistance of the strain to the antibiotic (P. aeruginosa; [6]): S
CO/N=C(\C(=O)N[C@@H]1C(=O)N2C(C(=O)O)=C(CSc3nc(=O)c(O)nn3C)CS[C@H]12)c1csc(N)n1 [CEF, Ceftriazone] | – | – | – | – | R | R | R | – | – | – | – | – | – | – | – | – | – | – | – | – | –
CCC[C@@H]1C[C@@H](C(=O)N[C@@H]([C@H]2O[C@H](SC)[C@H](O)[C@@H](O)[C@H]2O)[C@H](C)Cl)N(C)C1 [CLI, Clindamycin] | – | – | – | – | – | – | – | S | R | – | – | R | R | – | – | – | – | – | – | R | Sensitivity or resistance of the strain to the antibiotic (B. cereus; [22]): R
CO/N=C(\C(=O)N[C@@H]1C(=O)N2C(C(=O)O)=C(COC(C)=O)CS[C@H]12)c1csc(N)n1 [CTX, Cefotaxime] | R | R | S | R | S | – | – | – | – | R | R | – | – | R | S | S | S | R | S | – | Sensitivity or resistance of the strain to the antibiotic (P. aeruginosa; [6]): S
C[C@@H](O)[C@H]1C(=O)N2C(C(=O)O)=C(S[C@@H]3CN[C@H](C(=O)N(C)C)C3)[C@H](C)[C@H]12 [MER, Meropenem] | – | – | – | – | R | R | S | – | – | – | – | – | – | – | – | – | – | – | – | – | –
CO[C@H]1/C=C/O[C@@]2(C)Oc3c(C)c(O)c4c(O)c(c(/C=N/N5CCN(C)CC5)c(O)c4c3C2=O)NC(=O)/C(C)=C\C=C\[C@H](C)[C@H](O)[C@@H](C)[C@@H](O)[C@@H](C)[C@H](OC(C)=O)[C@@H]1C [RIF, Rifampicin] | – | – | – | – | – | – | – | – | – | – | – | – | – | – | – | – | – | – | – | S | Sensitivity or resistance of the strain to the antibiotic (B. cereus; [22]): S
CN(C)[C@@H]1C(O)=C(C(N)=O)C(=O)[C@@]2(O)C(O)=C3C(=O)c4c(O)cccc4[C@@](C)(O)[C@H]3C[C@@H]12 [TET, Tetracycline] | – | – | – | – | – | – | – | S | S | – | – | S | R | – | – | – | – | – | – | R | Sensitivity or resistance of the strain to the antibiotic (B. cereus; [22]): S
NC[C@H]1O[C@H](O[C@H]2[C@H](O)[C@@H](O[C@H]3O[C@H](CO)[C@@H](O)[C@H](N)[C@H]3O)[C@H](N)C[C@@H]2N)[C@H](N)C[C@@H]1O [TOB, Tobramycin] | – | – | – | – | S | S | S | – | – | – | – | – | – | – | – | – | – | – | – | – | –
CN[C@H](CC(C)C)C(=O)N[C@H]1C(=O)N[C@@H](CC(N)=O)C(=O)N[C@H]2C(=O)N[C@H]3C(=O)N[C@H](C(=O)N[C@H](C(=O)O)c4cc(O)cc(O)c4-c4cc3ccc4O)[C@H](O)c3ccc(c(Cl)c3)Oc3cc2cc(c3O[C@@H]2O[C@H](CO)[C@@H](O)[C@H](O)[C@H]2O[C@H]2C[C@](C)(N)[C@H](O)[C@H](C)O2)Oc2ccc(cc2Cl)[C@H]1O [VAN, Vancomycin] | S | S | – | – | – | – | – | S | S | I | S | S | S | – | – | – | – | – | – | S | Sensitivity or resistance of the strain to the antibiotic (B. cereus; [22]): S
Amoxicillin/Clavulanate [A/C] | – | – | S | R | – | – | – | – | – | – | – | – | – | R | R | S | S | R | S | – | –
Cotrimoxazole [SxT] | – | – | – | – | – | – | – | – | – | – | – | – | – | S | S | R | R | R | S | – | Sensitivity or resistance of the strain to the antibiotic (M. chelonae): R; Sensitivity or resistance of the strain to the antibiotic (M. fortuitum): S; Sensitivity or resistance of the strain to the antibiotic (M. abscessus): S
Gentamicin | S | S | S | S | – | – | – | S | R | S | S | R | R | – | – | – | – | – | – | – | –
